Reference: patent US10080811B2, “Diagnostic marker compounds and their use” (University of Leeds, priority 2012, dated 2018)

Experiments:
SH-SY5Y cells = conditions: 500 μM H2O2 24 hours before, 24 hours exposure
Protocol: Cytoprotective effect tests were performed on SH-SY5Y cells that had previously been exposed to hydrogen peroxide for 24 hours.

C57BL/6J mice = conditions: IP injection
Protocol: After 24 hours mice were perfused transcardially with 0.9% saline followed by 4% paraformaldehyde. Brains, arteries, heart, liver kidneys were removed, post-fixed and […] sections were cut on a vibratome (Leica Microsystems, Germany) The sections were mounted on slides, dried at 4° C., cover slipped using vectashield mounting medium and examined using a Zeiss laser scanning confocal microscope (LSM 510).

Compound | cytoprotective potency, comparison of the two nitrates (SH-SY5Y cells) | effect on hydrogen peroxide's cytotoxicity (SH-SY5Y cells; n=80) | blood brain barrier passage (labelling in the brain tissue) (C57BL/6J mice) | highest number of fluorescent peaks, brain tissue (C57BL/6J mice; 100 μM solution, 24 hours) | highest number of fluorescent peaks, heart tissue (C57BL/6J mice; 100 μM solution, 24 hours) | highest number of fluorescent peaks, liver tissue (C57BL/6J mice; 100 μM solution, 24 hours) | highest number of fluorescent peaks, lung tissue (C57BL/6J mice; 100 μM solution, 24 hours) | uptake into hepatocytes in liver tissue (C57BL/6J mice; higher magnifications)
O=[N+]([O-])[O-].O=[N+]([O-])[O-].O=[N+]([O-])[O-].[Ce+3] [cerium nitrate] | more potent antioxidant-based cytoprotective agent compared to europium nitrate | significantly inhibiting hydrogen peroxide's cytotoxicity |  |  |  |  |  | 
O=[N+]([O-])[O-].O=[N+]([O-])[O-].O=[N+]([O-])[O-].[Eu+3] [europium nitrate] |  |  | cross the blood brain barrier | ≥ 20 peaks per 100 μm^2 area | ≤ 1 peaks in a 100 μm^2 area | < 10 peaks in a 100 μm^2 area | ≤ 1 peaks in a 100 μm^2 area | had entered the hepatocytes
